The results in this text go back to patent US7572786B2, “Substituted 1-piperidin-3-yl-4-piperidin-4-yl-piperazine derivatives and their use as neurokinin antagonists” (Janssen Pharmaceutica, N.V., priority 2002, dated 2009).

Sequence of NK1 (P25103 whole entry): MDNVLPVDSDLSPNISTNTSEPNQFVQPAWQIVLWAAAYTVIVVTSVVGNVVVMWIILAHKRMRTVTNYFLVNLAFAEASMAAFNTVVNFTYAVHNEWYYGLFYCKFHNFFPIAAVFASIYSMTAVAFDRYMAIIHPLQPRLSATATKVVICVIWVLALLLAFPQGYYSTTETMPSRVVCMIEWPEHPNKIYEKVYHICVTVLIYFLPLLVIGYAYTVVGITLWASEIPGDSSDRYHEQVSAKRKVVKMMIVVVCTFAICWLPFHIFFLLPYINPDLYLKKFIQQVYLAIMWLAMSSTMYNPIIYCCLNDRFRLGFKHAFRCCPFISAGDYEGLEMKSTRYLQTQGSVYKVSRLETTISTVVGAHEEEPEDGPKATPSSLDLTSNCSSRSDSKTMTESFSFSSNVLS

In the first assay the target is T1, NK3 (Homo sapiens, UniProt P29371).
T1 sequence (P29371 1-465): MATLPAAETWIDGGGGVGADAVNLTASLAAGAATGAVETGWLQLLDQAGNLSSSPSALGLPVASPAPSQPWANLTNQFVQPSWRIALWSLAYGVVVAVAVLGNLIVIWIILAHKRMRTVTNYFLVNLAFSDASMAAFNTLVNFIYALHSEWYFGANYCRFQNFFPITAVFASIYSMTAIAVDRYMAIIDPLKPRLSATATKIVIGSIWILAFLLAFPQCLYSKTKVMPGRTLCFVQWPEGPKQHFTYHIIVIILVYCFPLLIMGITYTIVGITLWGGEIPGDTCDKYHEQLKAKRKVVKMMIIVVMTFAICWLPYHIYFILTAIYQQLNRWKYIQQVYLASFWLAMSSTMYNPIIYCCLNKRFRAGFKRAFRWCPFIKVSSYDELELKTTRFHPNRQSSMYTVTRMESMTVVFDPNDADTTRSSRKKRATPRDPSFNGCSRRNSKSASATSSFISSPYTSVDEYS
As to the kind of experiment: Signal transduction (ST), intracellular Ca++ (FLIPR), NK3. The assay is classed as cell-based. Particulars: read-out: pIC50 NK3 (converted).
Regarding `O=C(Cc1cccs1)N1CCCC(N2CCN([C@H]3CCN(C(=O)c4cc(C(F)(F)F)cc(C(F)(F)F)c4)[C@H](Cc4ccccc4)C3)CC2)C1` (stereo partly drawn) [Compound 43], the IC50 is 501 nM.

In the case of `O=C(c1ccc(O)cc1)N1CCCC(N2CCN(C3CCN(C(=O)c4cc(C(F)(F)F)cc(C(F)(F)F)c4)C(Cc4ccccc4)C3)CC2)C1` (stereo not drawn) [Compound 67], the IC50 was 1580 nM.

Consider `N#Cc1cccc(C(=O)N2CCCC(N3CCN([C@H]4CCN(C(=O)c5cc(C(F)(F)F)cc(C(F)(F)F)c5)[C@H](Cc5ccccc5)C4)CC3)C2)c1` (stereo partly drawn) [Compound 57], for which the IC50 is 794 nM.

Regarding `O=C(c1cc(C(F)(F)F)cc(C(F)(F)F)c1)N1CC[C@H](N2CCN(C3CCCN(S(=O)(=O)c4ccc(CO)cc4)C3)CC2)C[C@H]1Cc1ccccc1` (stereo partly drawn) [Compound 73], the IC50 was 251 nM.

Consider `CC(C(=O)N1CCCC(N2CCN([C@H]3CCN(C(=O)c4cc(C(F)(F)F)cc(C(F)(F)F)c4)[C@H](Cc4ccccc4)C3)CC2)C1)c1ccccc1` (stereo partly drawn) [Compound 48], for which the IC50 was 631 nM.

As to `O=C(c1cc(C(F)(F)F)cc(C(F)(F)F)c1)N1CC[C@H](N2CCN(C3CCCN(C(CO)c4ccsc4)C3)CC2)C[C@H]1Cc1ccccc1` (stereo partly drawn) [Compound 76], the IC50 is 1580 nM.

Consider `O=C(c1cc(C(F)(F)F)cc(C(F)(F)F)c1)N1CC[C@H](N2CCN(C3CCCN(S(=O)(=O)c4cccc(O)c4)C3)CC2)C[C@H]1Cc1ccccc1` (stereo partly drawn) [Compound 80], for which the IC50 was 501 nM.

In the case of `Cc1nnsc1C(=O)N1CCCC(N2CCN([C@H]3CCN(C(=O)c4cc(C(F)(F)F)cc(C(F)(F)F)c4)[C@H](Cc4ccccc4)C3)CC2)C1` (stereo partly drawn) [Compound 22], the IC50 is 501 nM.

The next assay has as its target T2, NK2 (Homo sapiens, UniProt P21452).
T2 sequence (P21452 1-398): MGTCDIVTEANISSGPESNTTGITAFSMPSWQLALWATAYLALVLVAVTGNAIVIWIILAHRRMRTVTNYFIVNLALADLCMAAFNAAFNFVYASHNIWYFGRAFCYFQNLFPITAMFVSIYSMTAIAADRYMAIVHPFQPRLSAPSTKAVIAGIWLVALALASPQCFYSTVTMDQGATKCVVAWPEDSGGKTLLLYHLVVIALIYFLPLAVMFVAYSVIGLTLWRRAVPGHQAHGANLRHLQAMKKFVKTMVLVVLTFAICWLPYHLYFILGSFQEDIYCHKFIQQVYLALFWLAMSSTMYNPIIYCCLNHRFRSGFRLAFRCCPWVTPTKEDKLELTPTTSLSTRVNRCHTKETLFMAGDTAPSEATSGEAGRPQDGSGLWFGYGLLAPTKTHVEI
As to the kind of experiment: Signal transduction (ST), intracellular Ca++ (FLIPR), NK2. The class given is cell-based. Particulars: read-out: pIC50 NK2 (converted). As to the method: [The source words this procedure for another target and reports this target under the same test.] This test evaluates in vitro functional NK1 antagonistic activity. For the measurements of intracellular Ca^++ concentrations the cells were grown on 96-well (black wall/transparent bottom) plates from Costar for 2 days until they reached confluence. The cells were loaded with 2 μM Fluo3 in DMEM containing 0.1% BSA and 2.5 mM probenecid for 1 h at 37° C. […] The cells were preincubated with a concentration range of antagonists for 20 min at RT and Ca^++-signals after addition of the agonists were measured in a Fluorescence Image Plate Reader (FLIPR from Molecular Devices, Crawley, England). The peak of the Ca^++-transient was considered as the relevant signal and the mean values of corresponding wells were analysed as described below.
The sigmoidal dose response curves were analysed by computerised curve-fitting, using the GraphPad Program. […] For antagonist responses the IC50-value was calculated using non-linear regression.
As for `O=C(Cc1cccs1)N1CCCC(N2CCN([C@H]3CCN(C(=O)c4cc(C(F)(F)F)cc(C(F)(F)F)c4)[C@H](Cc4ccccc4)C3)CC2)C1` (stereo partly drawn) [Compound 43], the IC50 was 2000 nM.

For `O=C(c1ccc(O)cc1)N1CCCC(N2CCN(C3CCN(C(=O)c4cc(C(F)(F)F)cc(C(F)(F)F)c4)C(Cc4ccccc4)C3)CC2)C1` (stereo not drawn) [Compound 67], the IC50 is 5010 nM.

For the compound `N#Cc1cccc(C(=O)N2CCCC(N3CCN([C@H]4CCN(C(=O)c5cc(C(F)(F)F)cc(C(F)(F)F)c5)[C@H](Cc5ccccc5)C4)CC3)C2)c1` (stereo partly drawn) [Compound 57], the IC50 was 3160 nM.

In the case of `O=C(c1cc(C(F)(F)F)cc(C(F)(F)F)c1)N1CC[C@H](N2CCN(C3CCCN(S(=O)(=O)c4ccc(CO)cc4)C3)CC2)C[C@H]1Cc1ccccc1` (stereo partly drawn) [Compound 73], the IC50 is 794 nM.

Regarding `CC(C(=O)N1CCCC(N2CCN([C@H]3CCN(C(=O)c4cc(C(F)(F)F)cc(C(F)(F)F)c4)[C@H](Cc4ccccc4)C3)CC2)C1)c1ccccc1` (stereo partly drawn) [Compound 48], the IC50 was 1000 nM.

With `O=C(c1cc(C(F)(F)F)cc(C(F)(F)F)c1)N1CC[C@H](N2CCN(C3CCCN(C(CO)c4ccsc4)C3)CC2)C[C@H]1Cc1ccccc1` (stereo partly drawn) [Compound 76], the IC50 was 2000 nM.

Consider `O=C(c1cc(C(F)(F)F)cc(C(F)(F)F)c1)N1CC[C@H](N2CCN(C3CCCN(S(=O)(=O)c4cccc(O)c4)C3)CC2)C[C@H]1Cc1ccccc1` (stereo partly drawn) [Compound 80], for which the IC50 was 794 nM.

For the compound `Cc1nnsc1C(=O)N1CCCC(N2CCN([C@H]3CCN(C(=O)c4cc(C(F)(F)F)cc(C(F)(F)F)c4)[C@H](Cc4ccccc4)C3)CC2)C1` (stereo partly drawn) [Compound 22], the IC50 was 2510 nM.

A further assay concerns the target NK1 (Homo sapiens, UniProt P25103). As to the kind of experiment: Signal transduction (ST), intracellular Ca++ (FLIPR), NK1 antagonism. The following applies: read-out: pIC50 NK1 (converted). The assay is classed as cell-based. In outline: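 Confluent cells were loaded with 2 μM Fluo3 with probenecid for 1 h at 37°C, then preincubated with antagonist concentration ranges for 20 min at RT before agonist addition. Peak FLIPR calcium transient was taken as signal; IC50 from non-linear regression of sigmoidal curves.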
For `O=C(Cc1cccs1)N1CCCC(N2CCN([C@H]3CCN(C(=O)c4cc(C(F)(F)F)cc(C(F)(F)F)c4)[C@H](Cc4ccccc4)C3)CC2)C1` (stereo partly drawn) [Compound 43], the IC50 was 10 nM.

With `O=C(c1ccc(O)cc1)N1CCCC(N2CCN(C3CCN(C(=O)c4cc(C(F)(F)F)cc(C(F)(F)F)c4)C(Cc4ccccc4)C3)CC2)C1` (stereo not drawn) [Compound 67], the IC50 was 6.31 nM.

Take `N#Cc1cccc(C(=O)N2CCCC(N3CCN([C@H]4CCN(C(=O)c5cc(C(F)(F)F)cc(C(F)(F)F)c5)[C@H](Cc5ccccc5)C4)CC3)C2)c1` (stereo partly drawn) [Compound 57]: the IC50 is 12.6 nM.

`O=C(c1cc(C(F)(F)F)cc(C(F)(F)F)c1)N1CC[C@H](N2CCN(C3CCCN(S(=O)(=O)c4ccc(CO)cc4)C3)CC2)C[C@H]1Cc1ccccc1` (stereo partly drawn) [Compound 73]: the IC50 was 7.94 nM.

Consider `CC(C(=O)N1CCCC(N2CCN([C@H]3CCN(C(=O)c4cc(C(F)(F)F)cc(C(F)(F)F)c4)[C@H](Cc4ccccc4)C3)CC2)C1)c1ccccc1` (stereo partly drawn) [Compound 48], for which the IC50 was 31.6 nM.

As to `O=C(c1cc(C(F)(F)F)cc(C(F)(F)F)c1)N1CC[C@H](N2CCN(C3CCCN(C(CO)c4ccsc4)C3)CC2)C[C@H]1Cc1ccccc1` (stereo partly drawn) [Compound 76], the IC50 is 20 nM.

For `O=C(c1cc(C(F)(F)F)cc(C(F)(F)F)c1)N1CC[C@H](N2CCN(C3CCCN(S(=O)(=O)c4cccc(O)c4)C3)CC2)C[C@H]1Cc1ccccc1` (stereo partly drawn) [Compound 80], the IC50 was 10 nM.

As for `Cc1nnsc1C(=O)N1CCCC(N2CCN([C@H]3CCN(C(=O)c4cc(C(F)(F)F)cc(C(F)(F)F)c4)[C@H](Cc4ccccc4)C3)CC2)C1` (stereo partly drawn) [Compound 22], the IC50 is 10 nM.
